Publication PMC5597618, “Identification and characterization of the novel reversible and selective cathepsin X inhibitors” (Scientific Reports, 2017)

How the values were obtained:
PC-3 cells = test: Cellular uptake and retention by LC-MS/MS; format: in vitro ADME, human; details: 50 µM, after 1 hour
Experimental: (§1) Evaluation of cellular uptake and retention of compound 22: sample preparation and LC- […]
(§2) PC-3 cells were treated for 1 hour with compound 22 (50 µM). Cells were washed twice with cold PBS, trypsinized, washed once more and centrifuged. A pellet of cells was resuspended in 200 µL of PBS (or in 200 µL of PBS containing 5µM inhibitor for standard addition) and transferred to 1.5 mL Eppendorf vials prefilled with 0.1 mm and 0.5 mm glass beads (NextAdvance, USA). All cell samples were then homogenized with a BulletBlender (NextAdvance, USA) for 5 min at speed setting »6«. […]
(§3) (2.30;50), (2.50;50), (2.6;5). […] ESI Jetstream parameters were set as follows: drying gas temperature 275 °C, drying gas flow 5 L/min, nebulizer 45 psi, sheath gas temperature 320 °C, sheath gas flow 11 L/min, capillary entrance voltage 4000 V and nozzle voltage 1000 V. Quadrupoles Q1 and Q3 were set at the widest resolution (2.5 amu) and multiple reaction monitoring (MRM) mass transitions used for the quantification of recorded traces are presented in Supplementary Table S4. […]
(§4) PC-3 cell lysate was diluted in cathepsin X assay buffer (1 mg/ml protein concentration). […] After blocking with 5% skimmed milk powder in TBS with 0.05% Tween 20, membrane was incubated with streptavidin-HRP (1:5000; Jackson ImmunoResearch) for 1 hour and proteins were detected with […]

cathepsin B = target: T1, cathepsin B (Homo sapiens, UniProt P07858); test: Labeling of cathepsin B with activity-based probe DCG-04 in PC-3 cell lysate; format: biochemical; details: 10 µM inhibitor
T1 construct: endogenous in cells; host or cells: PC-3

cathepsin X = cathepsin X (Homo sapiens, UniProt Q9UBR2); test: Labeling of cathepsin X with activity-based probe DCG-04 in PC-3 cell lysate; format: biochemical; set-up: endogenous in cells; host or cells: PC-3; details: 10 µM inhibitor
Sequence of cathepsin X (Q9UBR2 62-303): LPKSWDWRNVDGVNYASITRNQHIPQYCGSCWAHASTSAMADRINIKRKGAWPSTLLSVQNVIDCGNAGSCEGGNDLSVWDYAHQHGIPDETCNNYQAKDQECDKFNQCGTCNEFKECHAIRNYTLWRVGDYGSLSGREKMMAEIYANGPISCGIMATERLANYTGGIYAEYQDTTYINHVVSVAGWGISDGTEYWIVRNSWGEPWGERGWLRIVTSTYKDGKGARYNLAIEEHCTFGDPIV
Experimental: as §1, §2, §3, §4

With `CC(C)n1cnnc1SCC(=O)c1ccc2c(c1)OCCO2` [Compound 22, 1-(2,3-Dihydrobenzo[b][1,4]dioxin-6-yl)-2-((4-isopropyl-4H-1,2,4-triazol-3-yl)thio)ethan-1-one] the “% of 22 in the cell media” value (PC-3 cells) was 84%, the “inhibition of cathepsin B labeling by DCG-04” value (cathepsin B) was “weak inhibition” and the “delay of cathepsin X labeling by DCG-04” value (cathepsin X) was “approximately 20 minutes”.
